Data reported in patent US20230181673A1, “TRI-PEPTIDES AND TREATMENT OF METABOLIC, CARDIOVASCULAR AND INFLAMMATORY DISORDERS” (Diapin Therapeutics, LLC, priority 2018, published 2023).
Non-standard residues stand in square brackets, D forms with d. No end group written: not given here.

Tests used:
blood glucose [1] = assay: OGTT and non-fasting/endpoint blood glucose in WD-fed apoE−/− mice; format: in vivo; settings: for Non-fasting blood glucose 30 min post-gavage vs pre-gavage, decreased by: routine oral gavage, glycine 0.67, leucine 0.33, DT-109/DT-110 1 mg/g; for Endpoint glucose levels, lower by: following a 6 h fast, after 12 weeks, vs WD+H2O; for Acute OGTT: blood glucose 30 min after glucose with treatment / Acute OGTT: blood glucose at later time points (60-120 min): week 10, overnight fast, oral; for Acute OGTT: blood glucose 30 min after glucose with treatment: glucose 2 mg/g plus glycine 0.67, leucine 0.33, DT-109 or DT-110 1 mg/g; for Acute OGTT: blood glucose at later time points (60-120 min): glucose 2 mg/g plus treatment
From the text: (§1) Eight-week-old male apolipoprotein E-deficient (apoE−/−) mice (B6.129P2-Apoetm1Unc/J, Stock No.: 002052) were obtained from Jackson Laboratories. Mice were fed Western diet (WD, 42% of calories from fat and 0.2% cholesterol by weight, Envigo TD.88137). After one week of WD feeding, blood was carefully collected from the facial vein to determine baseline plasma levels of total cholesterol (TC). […] All mice were maintained on a 12-hour light/dark cycle and had ad libitum access to food and water. Body weight and food intake were measured every one and three weeks, respectively
At week 10, oral glucose tolerance tests (OGTT) were performed following an overnight fast by administering 2 mg/g of glucose via oral gavage. […] To evaluate the chronic effects of the treatments, mice were administered with glucose alone. […] Then, mice were administered with glucose with (acute) or without (chronic) treatments and blood glucose levels were measured every 30 min for up to 120 min. To assess the effects of the treatments on non-fasting glucose levels, blood was collected from the tip of the tail before routine administration of treatments via oral gavage (pre-gavage) and 30 min afterwards (post-gavage).
OGTT were performed after 12 h fasting.

gut microbiota = settings: mice with established NASH
Description: Total genomic DNA of the gut microbiota was extracted from fecal samples using the QIAamp DNA Stool Mini Kit (51540, Qiagen) according to the manufacturer's instructions. DNA was prepared for community analysis as previously described.17 Briefly, barcoded dual-index primers specific to the V4 region of the 16S rRNA gene were used to amplify the DNA.18 PCR reactions were composed of 5 μL of 4 μM equimolar primer set, 0.15 μL of AccuPrime Taq DNA High Fidelity Polymerase, 2 μL of 10×AccuPrime PCR Buffer II (Thermo Fisher Scientific 12346094), 11.85 μL of PCR-grade water, and 1 μL of DNA template. […] The normalized reactions were pooled and quantified using the Kapa Biosystems Library qPCR MasterMix (ROX Low) Quantification kit for Illumina platforms (KK4873). […]
DNA sequencing data was processed using Mothur according to SOP and focused primarily on α- and β-diversity based analyses. […] Constrained ordination RDA (redundancy analysis) was calculated, and the significance of environmental variables was checked by forward selection analysis. […] The principal component analysis (PCA) was plotted accordingly using Phyloseq package in R. The correlations between changes in the altered bacterial genera and NAFLD-related parameters in the liver or plasma were calculated using nonparametric Spearman's test.

SMAD2 = settings: NASH-diet, liver
Description: Liver samples were lysed in radioimmunoprecipitation assay lysis buffer (RIPA buffer, Thermo Scientific) supplemented with a protease/phosphatase inhibitor cocktail (Roche Applied Science). Proteins were resolved in 10% sodium dodecyl sulfate polyacrylamide gel electrophoresis (SDS-PAGE) and transferred to nitrocellulose membranes (Bio-Rad). The membranes were blocked for 1 h at room temperature in tris-buffered saline-Tween 20 (TBST) containing 5% fat-free milk and incubated with primary antibody at 4° C. overnight. The following primary antibodies were used: AGXT1 (Santa Cruz Biotechnology sa-517388, 1:500), HADHA (Proteintech 10758-1-AP, 1:1000), ACAA2 (ABcional A15778, 1:500), phospho-SMAD2 (Ser485/487, Cell Signaling, #3108S; 1:1000), SMAD2 (Cell Signaling Technology, #5339S; 1:1000), GAPDH (Santa Cruz Biotechnology so-365062; 1:2000), or β-Actin (Cell Signaling Technology #3700). The membranes were washed with TBST before incubated with IRDye-conjugated secondary antibodies (LI-COR Biosciences, 1:10000) at room temperature for 1 h. After TBST washing, bands were visualized and quantified using an Odyssey Infrared Imaging System (LI-COR Biosciences, version 2.1).
(§2) Mice fed CD and administered H2O served as control.

blood glucose [2] = assay: OGTT in C57BL/6J mice given glucose with glycine-based compounds; format: in vivo
Description: OGTT were performed in C57BL/6J mice after 12 h fasting (n=6-8).
OGTT were performed after 12 h fasting. […] Blood glucose concentrations were measured using a blood glucometer and test strips (Contour Next).

blood glucose [3] = settings: previous studies from the applicant's lab; cited from earlier work
ABCG8 = assay: Western blot of hepatic ABCG8 in WD-fed apoE−/− mice; format: in vivo; settings: normalized to β-Actin
From the text: as §1
The following primary antibodies were used: rabbit polyclonal anti-ABCG8 (Santa Cruz Biotechnology, sc-30111, working dilution 1:1000) and rabbit polyclonal anti-β-Actin (Cell signaling, 4967S, working dilution 1:3000). After TBST washing, membranes were incubated with secondary antibodies (LI-COR Biotechnology, donkey anti-rabbit IRDye 926-32213, 926-88073, working dilution 1:10000) for 1 hour at room temperature.

[4] = NASH-diet
Description: Body composition was assessed using nuclear magnetic resonance (NMR)-based analyzer (Minispec LF90II; Bruker Optics) at the U-M Animal Phenotyping Core. Oxygen consumption (VO2), carbon dioxide production (VCO2) and motor activity were measured using CLAMS (Columbus Instruments). Respiratory exchange ratio (RER) Is VCO2/VO2.
All measurements were performed by the University of Michigan Animal Phenotyping Core. Body fat, lean body mass, and free fluids were measured using a nuclear magnetic resonance (NMR)-based analyzer (Minispec LF90II; Bruker Optics). The analyzer is daily checked using a reference sample as recommended by the manufacture. The mice were placed individually into the measuring tube with minimum restrain. Oxygen consumption (VO2), carbon dioxide production (VCO2) and motor activity were measured using CLAMS (Columbus Instruments), an integrated open-circuit calorimeter equipped with an optical beam activity monitoring device. Mice were weighed before the measurements and individually placed into the sealed chambers (7.9″×4″×5″) with free access to food and water. The study was carried out in an experimentation room set at 20-23° C. with 12-12 h dark-light cycles (6:00 PM-6:00 AM). Measurements were carried out continuously for 48 h. During this time, animals were provided with food and water through the feeding and drinking devices located inside the chamber. VO2 and VCO2 in each chamber were sampled sequentially for 5 s in 10 min intervals and the motor activity was recorded every second in X and Z dimensions. The air flow rate through the chambers was adjusted to keep the oxygen differential around 0.3% at resting conditions. Respiratory exchange ratio (RER) was calculated as VCO2/VO2. Total energy expenditure, glucose oxidation and fat oxidation were calculated based on the values of VO2, VCO2, and the protein breakdown.
as §2

[5] = tested on: plasma lipids, adipokines and cytokines; assay: Plasma lipids, adipokines and cytokines in WD-fed apoE−/− mice; format: in vivo; settings: for Time-dependent increase in plasma TC (baseline to endpoint): 1 week WD baseline vs 12 weeks of treatment; for Endpoint plasma HDL / Endpoint plasma LDL, reduced by / Endpoint plasma TC, reduced by: 6 hour fast; for Endpoint plasma HDL / Endpoint plasma LDL, reduced by / Endpoint plasma TC, reduced by / Plasma levels of glycine-containing tripeptide molecule, lower by: vs WD+H2O; for Plasma levels of glycine-containing tripeptide molecule, lower by: 12 weeks, glycine 0.67, DT-109/DT-110 1 mg/g; for Plasma HDL (lipid profile): endpoint (FIG. 15I); for Plasma glycine-containing tripeptide molecule: endpoint (FIG. 15K)
From the text: as §1
Plasma levels of glycine tripeptide molecule, resistin, interleukin-6 (IL-6) and monocyte chemoattractant protein-1 (MCP1) were measured with a Luminex 200 chemistry analyzer (Luminex Corporation) at the Chemistry Laboratory of the MDRC using manufacturer-provided assay reagents and protocols (Millipore Multiplex, MMHMAG-44K). […]

[6] = tested on: adipose tissue gene expression; assay: qPCR of inflammatory cytokines in epididymal and subcutaneous adipose tissue of WD-fed apoE−/− mice; format: in vivo; settings: endpoint
From the text: as §1
Total RNA from liver or adipose tissue samples was extracted using QIAGEN's RNeasy kits (QIAGEN). RNA was reverse-transcribed into cDNA with SuperScript III and random primers (Invitrogen). Specific transcript levels were assessed by a real-time PCR system (Bio-Rad) using IQ SYBR Green Supermix (Bio-Rad) and the ΔΔCt threshold cycle method of normalization. Gene expression levels were normalized to glyceraldehyde 3-phosphate dehydrogenase (GAPDH). Primer pairs used for qPCR were obtained from Integrated DNA Technologies and are listed below: […]

[7] = tested on: hemoglobin-A1c and plasma TNFR1; settings: T2D patients, 5 g/day for 3 months; cited from earlier work
circulating TG = settings: apoE−/− mice, chronic glycine supplementation 1 mg/g/day; cited from earlier work
[8] = obese C57BL/6 mice, chronic glycine supplementation 1 mg/g/day; cited from earlier work
[9] = sucrose-fed rats; cited from earlier work
[10] = KK-Ay mice, dietary glycine; cited from earlier work
plasma glucose = settings: humans, glycine ingested together with glucose; cited from earlier work
[11] = 0.5 mg/g/day DT-109, compared to the H2O controls

CC(C)C[C@H](N)C(=O)O [leucine]
Non-fasting blood glucose 30 min post-gavage vs pre-gavage, decreased by (blood glucose [1]): trends towards increased blood glucose

Gly-Gly-Leu [DT-109]
Bacterial genus Alistipes in gut microbiota (gut microbiota): increased
Bacterial genus Clostridium sensu stricto in gut microbiota (gut microbiota): decreased
SMAD2 Ser465/467 phosphorylation (SMAD2): reduced SMAD2 Ser465/467 phosphorylation
Glucose-lowering effect in OGTT compared with glycine (blood glucose [2]; 12 h fasting, glucose 2 mg/g with 0.5 mg/g compound, oral): lowered glucose more efficiently than glycine
Glucose-lowering effect in OGTT compared with equivalent levels of free leucine or glycine (blood glucose [2]; DT-109 0.5 mg/g vs leucine 0.17 or glycine 0.33 mg/g): particularly when compared to equivalent levels of its individual AA
Glucose-lowering in OGTT and in non-fasting glucose (blood glucose [1]; apoE−/− mice on WD, after 10 weeks, DT-109 1 mg/g/day vs equivalent leucine, glycine or H2O): most potent glucose-lowering effects
Endpoint glucose levels, lower by (blood glucose [1]): 30%
Non-fasting blood glucose 30 min post-gavage vs pre-gavage, decreased by (blood glucose [1]): 21%
Acute OGTT: blood glucose 30 min after glucose with treatment (blood glucose [1]): most significant effects
Acute OGTT: blood glucose at later time points (60-120 min) (blood glucose [1]): significantly decreased
Glucose-lowering effects (previous studies) (blood glucose [3]): profound glucose-lowering effects
ABCG8 protein in liver (Western blot) (ABCG8): Overexpression
Body fat [4, 11]: reduced body fat
Lean mass [4, 11]: preserved lean mass
Respiratory exchange ratio (RER) ([4]; CLAMS weeks 22-23, DT-109 at 0.5 mg/g/day): no significant differences
Time-dependent increase in plasma TC (baseline to endpoint) [5]: significantly attenuated
Endpoint plasma HDL [5]: preserved
Endpoint plasma LDL, reduced by [5]: 38%
Endpoint plasma TC, reduced by [5]: 25%
Plasma levels of glycine-containing tripeptide molecule, lower by ([5]; apoE−/− mice on WD): 62%
Plasma TC and LDL (lipid profile) ([5]; apoE−/− mice on WD, DT-109 1 mg/g/day, endpoint): lowest TC and LDL
Plasma HDL (lipid profile) ([5]; apoE−/− mice on WD): without the reduction in HDL
Plasma glycine-containing tripeptide molecule ([5]; apoE−/− mice on WD): reduced
Plasma MCP1 levels ([5]; endpoint): significantly reduced
MCP1 expression in EAT and SAT [6]: significantly suppressed

Gly-Gly-[dL] [DT-110]
Non-fasting blood glucose 30 min post-gavage vs pre-gavage, decreased by (blood glucose [1]): 13%
Acute OGTT: blood glucose at later time points (60-120 min) (blood glucose [1]): significantly decreased
ABCG8 protein in liver (Western blot) (ABCG8): Overexpression
Plasma levels of glycine-containing tripeptide molecule, lower by ([5]; apoE−/− mice on WD): 56%
Plasma MCP1 levels ([5]; endpoint): significantly reduced
MCP1 expression in EAT and SAT [6]: significantly suppressed
TNFα expression in EAT [6]: most significant effects

NCC(=O)O [glycine, reference compound]
Hemoglobin-A1c and plasma TNFR1 [7]: reduced hemoglobin-A1c and plasma TNFR1
Circulating TG (circulating TG): reduce circulating TG
Glucose tolerance and fat loss [8]: restore glucose tolerance and accelerate fat loss
Intra-abdominal fat, plasma TG and FAO markers in hepatic mitochondria [9]: reduced intra-abdominal fat, plasma TG and increased FAO markers in hepatic mitochondria
Endpoint glucose levels, lower by (blood glucose [1]): 41%
Non-fasting blood glucose 30 min post-gavage vs pre-gavage, decreased by (blood glucose [1]): 10%
Acute OGTT: blood glucose 30 min after glucose with treatment (blood glucose [1]): most significant effects
Acute OGTT: blood glucose at later time points (60-120 min) (blood glucose [1]): significantly decreased
ABCG8 protein in liver (Western blot) (ABCG8): Overexpression
Time-dependent increase in plasma TC (baseline to endpoint) [5]: significantly attenuated
Endpoint plasma HDL [5]: 35%
Endpoint plasma LDL, reduced by [5]: 30%
Endpoint plasma TC, reduced by [5]: 19%
Plasma levels of glycine-containing tripeptide molecule, lower by ([5]; apoE−/− mice on WD): 53%
Plasma HDL (lipid profile) ([5]; apoE−/− mice on WD): reduction in HDL
Plasma glycine-containing tripeptide molecule ([5]; apoE−/− mice on WD): reduced
Plasma MCP1 levels ([5]; endpoint): significantly reduced
Glucose tolerance, circulating TG, ALT, HS and inflammatory infiltration [10]: improved glucose tolerance, lowered circulating TG and alanine-aminotransferase (ALT), while attenuating HS and inflammatory infiltration
MCP1 expression in EAT and SAT [6]: significantly suppressed
Attenuation of the increase in plasma glucose (plasma glucose): > 50%
